{
  "source": "patent US20240091366A1",
  "about": "“NOVEL ACID-SENSITIVE APTAMER TRIPTOLIDE CONJUGATE AND APPLICATIONS” (priority 2022, published 2024)",
  "key": {"[1]": {"tested_on": "breast cancer cell line MDA-MB-231", "assay": "MTT assay, cell proliferation inhibition", "assay_type": "cell-based", "settings": "for cell proliferation inhibition rate: 48 h, samples 1-3"}, "[2]": {"tested_on": "colon cancer cell line HCT116", "assay": "MTT assay, cell proliferation inhibition", "assay_type": "cell-based", "settings": "for cell proliferation inhibition rate: 48 h, samples 1-3"}, "[3]": {"tested_on": "pancreatic cancer cell line PANC-1", "assay": "MTT assay, cell proliferation inhibition", "assay_type": "cell-based", "settings": "for cell proliferation inhibition rate: 48 h, samples 1-3"}, "[4]": {"tested_on": "colon cancer cells HCT116", "assay": "In vivo antitumor activity, colon cancer xenograft in nude mice", "parameters": "species or system mouse; Tumor weight: unit not given here", "settings": "HCT116 model, once every 2 days, 8 doses", "description": "(§1) The following are the in vivo activity studies conducted in different tumor-bearing mice:\n(§2) A PBS negative control group was set up."}, "[5]": {"tested_on": "breast cancer cells MDA-MB-231", "assay": "In vivo antitumor activity, breast cancer xenograft in nude mice", "parameters": "species or system mouse; Tumor weight: unit not given here", "settings": "MDA-MB-231 model, once every 2 days, 8 doses", "description": "as §1\nThe materials used in the experiments were the same as those tested in 5.1 Colon cancer cell lines, differing only in the tumor strains.\nas §2"}, "[6]": {"assay": "Body weight during administration, colon cancer model", "settings": "HCT116 model, during 8 times of administration", "description": "Female nude mice were reared for 6-7 weeks under standard environment, colon cancer cells HCT116 were suspended in serum-free medium, and each mouse was inoculated with 5*10^6 tumor cells. When the tumor volume reached 50-100 mm^3, the mice were randomly divided into 4 groups, and were injected with aptamer triptolide conjugate, triptolide, and aptamer by tail vein, respectively, 12 mice in each group. A PBS negative control group was set up. […] The drugs were administered once every 2 days for 8 consecutive doses, and the experiment was ended 24 hours after the last dose. At the end of the experiment, the animals were executed by breaking the cervical vertebrae, and the tumors were stripped and weighed to calculate the tumor growth inhibition rate of the drug. The t-test was used to compare the tumor weight, tumor volume, RTV and other indexes of the animals in each group."}},
  "note": "“And” between values parts separate entries of the source, which are not always exact repeats. Equal entries are not always repeated.",
  "data": [
    {"substance": "AS1411: nucleolin aptamer, single-stranded oligonucleotide, SEQ ID NO: 1 GGTGGTGGTGGTTGTGGTGGTGGTGG", "values": [
      {"measurement": "cell proliferation inhibition rate", "setting": "[1]; MDA-MB-231, 3.1 nM, 0.0031 µM", "value": "2.2910 and 2.1209 and 2.5159"},
      {"measurement": "cell proliferation inhibition rate", "setting": "[1]; MDA-MB-231, 6.3 nM, 0.0063 µM", "value": "3.2333 and 4.9611 and 4.2994"},
      {"measurement": "cell proliferation inhibition rate", "setting": "[1]; MDA-MB-231, 25.0 nM, 0.025 µM", "value": "5.5843 and 7.7330 and 4.4586"},
      {"measurement": "cell proliferation inhibition rate", "setting": "[1]; MDA-MB-231, 50.0 nM, 0.05 µM", "value": "6.8129 and 6.6467 and 6.1306"},
      {"measurement": "cell proliferation inhibition rate", "setting": "[1]; MDA-MB-231, 100.0 nM, 0.1 µM", "value": "9.0069 and 8.0722 and 8.6624"},
      {"measurement": "cell proliferation inhibition rate", "setting": "[1]; MDA-MB-231, 200.0 nM, 0.2 µM", "value": "14.4727 and 11.8492 and 10.6369"},
      {"measurement": "inhibitory effect on tumor cell", "setting": "[1]; MDA-MB-231, at the experimental concentration", "value": "did not have any significant inhibitory effect"},
      {"measurement": "cell proliferation inhibition rate", "setting": "[2]; HCT116, 6.3 nM, 0.0063 µM", "value": "2.9669 and 1.6683 and 3.1584"},
      {"measurement": "cell proliferation inhibition rate", "setting": "[2]; HCT116, 12.5 nM, 0.0125 µM", "value": "4.1987 and 3.0229 and 2.5102"},
      {"measurement": "cell proliferation inhibition rate", "setting": "[2]; HCT116, 25.0 nM, 0.025 µM", "value": "5.4987 and 6.2971 and 5.6986"},
      {"measurement": "cell proliferation inhibition rate", "setting": "[2]; HCT116, 50.0 nM, 0.05 µM", "value": "6.5424 and 6.5952 and 5.0330"},
      {"measurement": "cell proliferation inhibition rate", "setting": "[2]; HCT116, 100.0 nM, 0.1 µM", "value": "10.6504 and 12.1637 and 10.9076"},
      {"measurement": "cell proliferation inhibition rate", "setting": "[2]; HCT116, 200.0 nM, 0.2 µM", "value": "16.9608 and 13.5881 and 14.2937"},
      {"measurement": "inhibitory effect on tumor cell", "setting": "[2]; HCT116, at the experimental concentration", "value": "did not have any significant inhibitory effect"},
      {"measurement": "cell proliferation inhibition rate", "setting": "[3]; PANC-1, 12.5 nM, 0.0125 µM", "value": "3.6656 and 3.5639 and 3.6148"},
      {"measurement": "cell proliferation inhibition rate", "setting": "[3]; PANC-1, 25.0 nM, 0.025 µM", "value": "3.0417 and 4.2455 and 4.1946"},
      {"measurement": "cell proliferation inhibition rate", "setting": "[3]; PANC-1, 50.0 nM, 0.05 µM", "value": "7.2954 and 7.9552 and 9.6253"},
      {"measurement": "cell proliferation inhibition rate", "setting": "[3]; PANC-1, 100.0 nM, 0.1 µM", "value": "8.3147 and 7.1285 and 8.7216"},
      {"measurement": "cell proliferation inhibition rate", "setting": "[3]; PANC-1, 200.0 nM, 0.2 µM", "value": "9.6236 and 10.2679 and 9.9457"},
      {"measurement": "inhibitory effect on tumor cell", "setting": "[3]; PANC-1, at the experimental concentration", "value": "did not have any significant inhibitory effect"},
      {"measurement": "RTV", "setting": "[4]; 10 μM 100 μL tail vein", "value": "33.13 ± 0.51"},
      {"measurement": "T/C (%)", "setting": "[4]; 10 μM 100 μL tail vein", "value": 93.19, "unit": "%"},
      {"measurement": "Tumor inhibition rate (%)", "setting": "[4]; 10 μM 100 μL tail vein", "value": 6.45, "unit": "%"},
      {"measurement": "Tumor weight", "setting": "[4]; 10 μM 100 μL tail vein", "value": "2.92 ± 0.33"},
      {"measurement": "RTV", "setting": "[4]; 30 μM 100 μL tail vein", "value": "28.56 ± 0.23"},
      {"measurement": "T/C (%)", "setting": "[4]; 30 μM 100 μL tail vein", "value": 80.34, "unit": "%"},
      {"measurement": "Tumor inhibition rate (%)", "setting": "[4]; 30 μM 100 μL tail vein", "value": 12.91, "unit": "%"},
      {"measurement": "Tumor weight", "setting": "[4]; 30 μM 100 μL tail vein", "value": "2.74 ± 0.15"},
      {"measurement": "RTV", "setting": "[4]; 50 μM 100 μL tail vein", "value": "26.32 ± 0.15"},
      {"measurement": "T/C (%)", "setting": "[4]; 50 μM 100 μL tail vein", "value": 74.04, "unit": "%"},
      {"measurement": "Tumor inhibition rate (%)", "setting": "[4]; 50 μM 100 μL tail vein", "value": 16.12, "unit": "%"},
      {"measurement": "Tumor weight", "setting": "[4]; 50 μM 100 μL tail vein", "value": "2.66 ± 0.14"},
      {"measurement": "RTV", "setting": "[5]; 10 μM tail vein", "value": "39.29 ± 16"},
      {"measurement": "T/C (%)", "setting": "[5]; 10 μM tail vein", "value": 94.79, "unit": "%"},
      {"measurement": "Tumor inhibition rate (%)", "setting": "[5]; 10 μM tail vein", "value": 7.00, "unit": "%"},
      {"measurement": "Tumor weight", "setting": "[5]; 10 μM tail vein", "value": "3.19 ± 0.27"},
      {"measurement": "RTV", "setting": "[5]; 30 μM tail vein", "value": "37.55 ± 34"},
      {"measurement": "T/C (%)", "setting": "[5]; 30 μM tail vein", "value": 90.59, "unit": "%"},
      {"measurement": "Tumor inhibition rate (%)", "setting": "[5]; 30 μM tail vein", "value": 14.87, "unit": "%"},
      {"measurement": "Tumor weight", "setting": "[5]; 30 μM tail vein", "value": "2.92 ± 0.39"},
      {"measurement": "RTV", "setting": "[5]; 50 μM tail vein", "value": "35.19 ± 38"},
      {"measurement": "T/C (%)", "setting": "[5]; 50 μM tail vein", "value": 84.90, "unit": "%"},
      {"measurement": "Tumor inhibition rate (%)", "setting": "[5]; 50 μM tail vein", "value": 18.95, "unit": "%"},
      {"measurement": "Tumor weight", "setting": "[5]; 50 μM tail vein", "value": "2.78 ± 0.41"},
      {"measurement": "body weights of mice", "setting": "[6]", "value": "basically maintained in the tolerable range of animal toxicity and side-effects"}
    ]}
  ]
}
